Experiments:
[1] = LogP measurement by HPLC on reversed phase columns (EEC directive 79/831 Annex V.A8); format: physicochemical
Procedure: If more than one LogP value is available within the same method, all the values are given and separated by "+".
Lambda-max-values were determined using UV-spectra from 200 nm to 400 nm and the peak values of the chromatographic signals.

[2] = test system: Puccinia recondita; test: in vivo preventive test on Puccinia recondita (brown rust on wheat); conditions: for efficacy: 500 ppm; for pest or weed control at 500 ppm: Puccinia recondita, 264 h, 500 ppm of active ingredient, young wheat plants sprayed, inoculated after 24 hours, evaluated 11 days after the inoculation, read-out: efficacy
Procedure: Example: in vivo preventive test on Puccinia recondita (brown rust on wheat)
(§1) The active ingredients were made soluble and homogenized in a mixture of Dimethyl sulfoxide/Acetone/ /Tween® 80 and then diluted in water to the desired concentration.
The young plants of wheat were treated by spraying the active ingredient prepared as described above. Control plants were treated only with an aqueous solution of Acetone/Dimethyl sulfoxide/ Tween® 80.
After 24 hours, the plants were contaminated by spraying the leaves with an aqueous suspension of Puccinia recondita spores. The contaminated wheat plants were incubated for 24 hours at 20°C and at 100% relative humidity and then for 10 days at 20°C and at 70-80% relative humidity.
The test was evaluated 11 days after the inoculation. 0% means an efficacy which corresponds to that of the control plants while an efficacy of 100% means that no disease was observed.

[3] = test system: Sphaerotheca fuliginea; test: in vivo preventive test on Sphaerotheca fuliginea (powdery mildew on cucurbits); conditions: 500 ppm of active ingredient, young gherkin plants sprayed, inoculated after 24 hours, evaluated 8 days after the inoculation; for pest or weed control at 500 ppm: Podosphaera fuliginea, 192 h, read-out: efficacy
Procedure: Example: in vivo preventive test on Sphaerotheca fuliginea (powdery mildew on cucurbits)
as §1
The young plants of gherkin were treated by spraying the active ingredient prepared as described above. Control plants were treated only with an aqueous solution of Acetone/Dimethyl sulfoxide/ […].
After 24 hours, the plants were contaminated by spraying the leaves with an aqueous suspension of Sphaerotheca fuliginea spores. The contaminated gherkin plants were incubated for 8 days at 20°C and at 70-80% relative humidity.
The test was evaluated 8 days after the inoculation. 0% means an efficacy which corresponds to that of the control plants while an efficacy of 100% means that no disease was observed.

[4] = test system: Phakospora pachyrhizi; test: in vivo preventive test on Phakospora pachyrhizi (soybean rust); conditions: for efficacy: 500 ppm; for pest or weed control at 500 ppm: Glycine max, 288 h, 500 ppm of active ingredient, young soybean plants sprayed, inoculated after 24 hours, evaluated 12 days after the inoculation, read-out: efficacy
Procedure: Example: in vivo preventive test on Phakospora pachyrhizi (soybean rust)
as §1
The young plants of soybean were treated by spraying the active ingredient prepared as described above. Control plants were treated only with an aqueous solution of Acetone/Dimethyl sulfoxide/ […].
After 24 hours, the plants were contaminated by spraying the leaves with an aqueous suspension of Phakosporapachyrhizi spores. The contaminated soybean plants were incubated for 24 hours at 24°C and at 100% relative humidity and then for 11 days at 24°C and at 70-80% relative humidity.
The test was evaluated 12 days after the inoculation. 0% means an efficacy which corresponds to that of the control plants while an efficacy of 100% means that no disease was observed.

[5] = method [a]: LC-UV, acidic range, 0.1% formic acid in water and acetonitrile as eluent
[6] = method [b]: LC-UV, neutral range, 0.001 molar ammonium acetate solution in water and acetonitrile as eluent
[7] = reversed phase HPLC column, method [a]: LC-UV, acidic range, 0.1% formic acid in water and acetonitrile as eluent
[8] = reversed phase HPLC column, method [b]: LC-UV, neutral range, 0.001 molar ammonium acetate solution in water and acetonitrile as eluent

| SMILES | chromatographic logP [1, 5] | chromatographic logP [1, 6] | efficacy [2] | efficacy [3] | efficacy [4] | chromatographic logP [1, 7] | chromatographic logP [1, 8] | pest or weed control at 500 ppm [2] [%] | pest or weed control at 500 ppm [3] [%] | pest or weed control at 500 ppm [4] [%] |
| --- | --- | --- | --- | --- | --- | --- | --- | --- | --- | --- |
| CCSc1nccc(Oc2cc(C)c(N=CN(C)CC)cc2C)n1 [I.027, N-ethyl-N'-[4-(2-ethylsulfanylpyrimidin-4-yl)oxy-2,5-dimethylphenyl]-N-methylmethanimid-amide] | 1.27 | 4.12 | at least 70% | at least 70% | at least 70% |  |  |  |  |  |
| CCN(C)C=Nc1cc(Br)c(Oc2cc(SC(C)(C)C)nc(C)n2)cc1C [I.018, N'-[5-bromo-4-(6-tert-butylsulfanyl-2-methylpyrimidin-4-yl)oxy-2-methylphenyl]-N-ethyl-N-methylmethanimidamide] |  |  |  |  |  | 2.11 | 5.99 | ≥ 70 | ≥ 70 | ≥ 70 |
| CCN(C)C=Nc1cc(Br)c(Oc2ccnc(SC(C)C)n2)cc1C [I.014, N'-[5-bromo-2-methyl-4-(2-propan-2-ylsulfanylpyrimidin-4-yl)oxyphenyl]-N-ethyl-N-methyl-methanimidamide] |  |  |  |  |  | 1.6 | 4.78 | ≥ 70 | ≥ 70 | ≥ 70 |
| CCCSc1nccc(Oc2cc(C)c(N=CN(C)CC)cc2C(F)F)n1 [I.036, N'-[5-(difluoromethyl)-2-methyl-4-(2-propylsulfanylpyrimidin-4-yl)oxyphenyl]-N-ethyl-N-methylmethanimidamide] |  |  |  |  |  | 1.55 |  | ≥ 70 | ≥ 70 | ≥ 70 |
| CCN(C)C=Nc1cc(C)c(Oc2ccnc(SCCC(C)C)n2)cc1C [I.002, N'-[2,5-dimethyl-4-[2-(3-methylbutylsulfanyl)pyrimidin-4-yl]oxyphenyl]-N-ethyl-N-methyl-methanimidamide] |  |  |  |  |  | 1.9 | 5.66 | ≥ 70 | ≥ 70 | ≥ 70 |
| CCN(C)C=Nc1cc(C)c(Oc2ccnc(SC(C)C)n2)cc1C [I.028, N'-[2,5-dimethyl-4-(2-propan-2-ylsulfanylpyrimidin-4-yl)oxyphenyl]-N-ethyl-N-methylmethan-imidamide] |  |  |  |  |  | 1.45 | 4.54 | ≥ 70 | ≥ 70 | ≥ 70 |
| CCCSc1nccc(Oc2cc(C)c(N=CN(C)CC)cc2Br)n1 [I.015, N'-[5-bromo-2-methyl-4-(2-propylsulfanylpyrimidin-4-yl)oxyphenyl]-N-ethyl-N-methylmethan-imidamide] |  |  |  |  |  | 1.66 | 4.86 | ≥ 70 | ≥ 70 | ≥ 70 |
| CCN(C)C=Nc1cc(C)c(Oc2ccnc(Sc3ccccc3F)n2)cc1C [I.008, N-ethyl-N'-[4-[2-(2-fluorophenyl)sulfanylpyrimidin-4-yl]oxy-2,5-dimethylphenyl]-N-methyl-methanimidamide] |  |  |  |  |  | 1.6 |  | ≥ 70 | ≥ 70 | ≥ 70 |
| CCN(C)C=Nc1cc(C)c(Oc2ccnc(SCC(F)(F)F)n2)cc1Cl [I.006, N'-[2-chloro-5-methyl-4-[2-(2,2,2-trifluoroethylsulfanyl)pyrimidin-4-yl]oxyphenyl]-N-ethyl-N-methylmethanimidamide] |  |  |  |  |  | 1.53 | 4.19 | ≥ 70 | ≥ 70 | ≥ 70 |
| CCN(C)C=Nc1cc(C)c(Oc2ccnc(SC(C)C)n2)cc1Cl [I.046, N'-[2-chloro-5-methyl-4-(2-propan-2-ylsulfanylpyrimidin-4-yl)oxyphenyl]-N-ethyl-N-methyl-methanimidamide] |  |  |  |  |  | 1.52 | 4.35 | ≥ 70 |  |  |
| CCN(C)C=Nc1cc(Br)c(Oc2ccnc(C(C)(C)C)n2)cc1C [I.038, N'-[5-bromo-4-(2-tert-butylpyrimidin-4-yl)oxy-2-methylphenyl]-N-ethyl-N-methylmethanimid-amide] | 1.58 | 4.93 | at least 70% |  | at least 70% |  |  |  |  |  |
| CCN(C)C=Nc1cc(C#N)c(Oc2ccnc(SCC(C)C)n2)cc1C [I.049, N'-[5-cyano-2-methyl-4-[2-(2-methylpropylsulfanyl)pyrimidin-4-yl]oxyphenyl]-N-ethyl-N-methylmethanimidamide] |  |  |  |  |  | 1.6 | 4.5 | ≥ 70 | ≥ 70 |  |
| CCN(C)C=Nc1cc(C)c(Oc2ccnc(SCC(C)C)n2)cc1C [I.026, N'-[2,5-dimethyl-4-[2-(2-methylpropylsulfanyl)pyrimidin-4-yl]oxyphenyl]-N-ethyl-N-methyl-methanimidamide] |  |  |  |  |  | 1.61 | 5.06 | ≥ 70 |  | ≥ 70 |
| CCN(C)C=Nc1cc(C)c(Oc2ccnc(SCC(C)C)n2)cc1Cl [I.048, N'-[2-chloro-5-methyl-4-[2-(2-methylpropylsulfanyl)pyrimidin-4-yl]oxyphenyl]-N-ethyl-N-methylmethanimidamide] |  |  |  |  |  | 1.72 | 4.77 | ≥ 70 | ≥ 70 |  |
| CCCSc1nccc(Oc2cc(C)c(N=CN(C)CC)cc2C#N)n1 [I.050, N'-[5-cyano-2-methyl-4-(2-propylsulfanylpyrimidin-4-yl)oxyphenyl]-N-ethyl-N-methylmethan-imidamide] |  |  |  |  |  | 1.44 | 4.16 | ≥ 70 | ≥ 70 |  |
| CCN(C)C=Nc1cc(C)c(Oc2ccnc(C(C)(C)C)n2)cc1C [I.032, N'-[4-(2-tert-butylpyrimidin-4-yl)oxy-2,5-dimethylphenyl]-N-ethyl-N-methylmethanimidamide] |  |  |  |  |  | 1.46 | 4.56 | ≥ 70 |  | ≥ 70 |
| CCN(C)C=Nc1cc(C(F)F)c(Oc2nc(SCC(C)C)ncc2C)cc1C [I.051, N'-[5-(difluoromethyl)-2-methyl-4-[5-methyl-2-(2-methylpropylsulfanyl)pyrimidin-4-yl]oxyphenyl]-N-ethyl-N-methylmethanimidamide] |  |  |  |  |  | 1.9 |  |  | ≥ 70 |  |
| CCN(C)C=Nc1cc(C)c(Oc2ccnc(Sc3ccncc3)n2)cc1C [I.047, N'-[2,5-dimethyl-4-(2-pyridin-4-ylsulfanylpyrimidin-4-yl)oxyphenyl]-N-ethyl-N-methylmethan-imidamide] |  |  |  |  |  | 1.13 |  |  | ≥ 70 |  |
| CCN(C)C=Nc1cc(C(F)(F)F)c(Oc2ccnc(SCC(C)C)n2)cc1C [I.035, N-ethyl-N-methyl-N'-[2-methyl-4-[2-(2-methylpropylsulfanyl)pyrimidin-4-yl]oxy-5-(trifluoromethyl)phenyl]methanimidamide] |  |  |  |  |  | 1.93 |  | ≥ 70 |  | ≥ 70 |

Source: patent EP3708565A1, “PYRIMIDINYLOXYPHENYLAMIDINES AND THE USE THEREOF AS FUNGICIDES” (Bayer AG, priority 2020, dated 2020)
